Like-named read-outs stand apart in the source and are kept apart here.
What was measured:
[1] = test system: human normal gastric epithelial cell GES-1; experiment: MTT cell proliferation (cytotoxicity) assay on human normal gastric epithelial cells GES-1; assay type: cell-based; details: for IC50: pure compounds, MTT, 48 h, n = 6, read-out: IC50 GES-1 (proliferation inhibition); for inhibition activity on GES-1 cell lines growth vs control, dose-dependent: Figure 2
Description: (§1) Human normal liver cell L-O2 was kindly donated by the School of Life Science, Nanjing Normal University (Nanjing, China), and Human normal gastric epithelial cell GES-1 was kindly donated by the Department of Gastroenterology, Nanjing Drum Tower Hospital (Nanjing, China). Human normal liver cell LO-2 was routinely cultured in DMEM medium, supplemented with 10% (v/v) fetal bovine serum (FBS), 100 U/mL of penicillin and 100 μg/mL of streptomycin in a humidified atmosphere with 5% CO2 at 37 °C in an incubator. The culture medium was changed every day. Cultures were dissociated with 0.25% trypsase in phosphate buffered (pH 7.2~7.4) saline (PBS). Human normal gastric epithelial cell GES-1 was routinely cultured in DMEM medium, supplemented with 15% (v/v) calf serum (CS), 100 U/mL of penicillin and 100 μg/mL of streptomycin in a humidified atmosphere with 5% CO2 at 37 °C in an incubator. The culture medium was changed every two days. Cultures were dissociated with 0.25% trypsase and 0.05% EDTA in PBS (pH 7.2~7.4).
(§2) Cytotoxicity activity was assayed by MTT method as described. Briefly, cells were seeded in 96-well plates (Costar, Corning Co., Ltd., Beijing, China) with 100 μL at a concentration of cell suspension of 1.0 × 10_4 cells/mL (L-O2 cell) and 1.0 × 10_5 cells/mL (GES-1 cell), and incubated for 24 h at 37 °C in a humidified atmosphere of 5% CO2 in an incubator.
(§3) Every sample was solubilized in dimethyl sulfoxide (DMSO) to a concentration of 10 mg/mL and stored at 4 °C, then diluted with complete medium to the desired series concentration before treating the cells. Each solution was added into 96-well plates with 100 μL per well, repeated 6 well. Cells of the control groups were treated with the same volume of medium. The treated cells with different groups were incubated for 48 h at 37 °C in a humidified atmosphere of 5% CO2 in an incubator. Then, the treated cells were added with 20 μL/well of MTT (5.0 mg/mL), and incubated for a further 4 h in an incubator. The growth medium was removed from all the wells, and 150 μL DMSO were added to each well. The plates were shaken gently for 10 min to blend the mixture. The absorbance value of each well was read at 490 nm using a microplate reader. All experiments were performed at least three times. The inhibition rate of cell proliferation was calculated according to the formula:
(§4) (1) cell inhibition (%)=1-sample solution absorbance value/control absorbance value)×100%
(§5) The results were expressed as an inhibition ratio and IC50 (concentration that inhibits 50% of cell growth). The data were analyzed with software SPSS 15.0 (SPSS Inc.: Chicago, IL, USA). The anti-proliferation activity is more significant when the IC50 is smaller.

[2] = test system: human normal liver cells L-O2; experiment: MTT cell proliferation (cytotoxicity) assay on human normal liver cells L-O2; assay type: cell-based; details: for IC50: 48 h, pure compounds, MTT, n = 6, read-out: IC50 L-O2 (proliferation inhibition)
Description: as §1, §2, §3, §4, §5

[3] = concentration range 0.78–12.5 μg/mL
[4] = concentration range 0.78–12.5 μg/mL, Figure 3
[5] = concentration range 0.39–6.25 μg/mL

For `CC(=O)OC1C(C)=CC23C(=O)C(C=C(C)C(OC(=O)c4ccccc4)C12O)C1C(CC3C)C1(C)C` (stereo not drawn) [Compound 4, kansuiphorin C], the IC50 ([1]; Homo sapiens, GES1, 48 h) was > 100 µM and the IC50 ([2]; Homo sapiens) was > 100 µM.
With `CCCCCC=CC=CC(=O)OC1C(C)=CC23C(=O)C(C=C(C)C(O)C12O)C1C(CC3C)C1(C)C` (stereo not drawn) [Compound 7, 3-O-(2′E,4′Z-Decadienoyl)-20-deoxyingenol] the IC50 ([1]; Homo sapiens, GES1, 48 h) was 3.53 µM, the “inhibition activity on GES-1 cell lines growth vs control, dose-dependent” value [1, 3] was “significant inhibition activity” and the IC50 ([2]; Homo sapiens) was 13.1 µM. The “inhibition activity on L-O2 cell lines growth vs control, dose-dependent” value [2, 4] was “significant inhibition activity”.
For `C=C1C(OC(=O)c2ccccc2)C(O)C(=O)C(C)(C)C2OC2C(C)C(=O)C2(O)C(C1OC(=O)c1ccccc1)C(OC(C)=O)C(C)(O)C2OC(C)=O` (stereo not drawn) [Compound 2, kansuinine B], the IC50 ([1]; Homo sapiens, GES1, 48 h) was > 100 µM and the IC50 ([2]; Homo sapiens) was > 100 µM.
In the case of `CC(C)=CCC[C@@H](C)[C@@H]1CC[C@]2(C)C3=C(CC[C@@]12C)[C@@]1(C)CC[C@H](O)C(C)(C)[C@@H]1CC3` [Compound 12, euphol], the IC50 ([1]; Homo sapiens, GES1, 48 h) is reported as > 100 µM and the IC50 ([2]; Homo sapiens) is reported as > 100 µM.
With `C=C1[C@H](OC(C)=O)[C@@H](OC(=O)c2ccccc2)[C@@H](OC(C)=O)C(C)(C)[C@H]2O[C@](O)([C@H](C)C2=O)[C@@]2(OC(C)=O)C[C@H](C)[C@H](OC(C)=O)[C@@H]2[C@H]1OC(C)=O` [Compound 1, kansuinine A] the IC50 ([1]; Homo sapiens, GES1, 48 h) was > 100 µM and the IC50 ([2]; Homo sapiens) was > 100 µM.
In the case of `CCCCCC=CC=CC(=O)OC1C(C)=CC23C(=O)C(C=C(COC(C)=O)C(O)C12O)C1C(CC3C)C1(C)C` (stereo not drawn) [Compound 5, 3-O-(2′E,4′Z-Decadienoyl)-20-O-acetylingenol], the IC50 ([1]; Homo sapiens, GES1, 48 h) is reported as 8.51 µM, the “inhibition activity on GES-1 cell lines growth vs control, dose-dependent” value [1, 3] is reported as “significant inhibition activity” and the IC50 ([2]; Homo sapiens) is reported as 12.4 µM. For the same compound, the “inhibition activity on L-O2 cell lines growth vs control, dose-dependent” value [2, 4] was “significant inhibition activity”.
For `CCCCCC=CC=CC(=O)OC1C(C)=CC23C(=O)C(C=C(COC(C)=O)C(O)C12O)C1C(CC3C)C1(C)C` (stereo not drawn) [Compound 6, 3-O-(2′E,4′E-Decadienoyl)-20-O-acetylingenol], the “inhibition activity on GES-1 cell lines growth vs control, dose-dependent” value [1, 5] was “significant inhibition activity”, the IC50 [1] was 6.67 µM and the “inhibition activity on L-O2 cell lines growth vs control, dose-dependent” value [2, 4] was “significant inhibition activity”. For the same compound, the IC50 [2] was 8.22 µM.
With `CC(C)=CCC[C@H](C)[C@@H]1CC[C@]2(C)C3=C(CC[C@@]12C)[C@@]1(C)CC[C@H](O)C(C)(C)C1CC3=O` (stereo partly drawn) [Compound 11, epi-kansenone] the IC50 ([1]; Homo sapiens, GES1, 48 h) was 8.04 µM, the “inhibition activity on GES-1 cell lines growth vs control, dose-dependent” value [1, 5] was “significant inhibition activity” and the IC50 ([2]; Homo sapiens) was 17.8 µM. For the same compound, the “inhibition activity on L-O2 cell lines growth vs control, dose-dependent” value [2, 4] was “significant inhibition activity” and the melting point was 116 to 118 °C.
With `CC1=CC2C(=O)C3(C=C(C)C(OC(=O)c4ccccc4)C3(O)C1O)C(C)CC1C2C1(C)C` (stereo not drawn) [Compound 8, 3-O-Benzoyl-20-deoxyingenol] the IC50 ([1]; Homo sapiens, GES1, 48 h) was 23.5 µM, the “inhibition activity on GES-1 cell lines growth vs control, dose-dependent” value [1, 3] was “significant inhibition activity” and the IC50 ([2]; Homo sapiens) was 70.8 µM. For the same compound, the “inhibition activity on L-O2 cell lines growth vs control” value ([2]; concentration range 3.125–50 μg/mL, Figure 3) was “significant inhibition activity”.
With `CC1=CC23C(=O)C(C=C(C)C(OC(=O)c4ccccc4)C2(O)C1O)C1C(CC3C)C1(C)C` (stereo not drawn) [Compound 9, 5-O-Benzoyl-20-deoxyingenol] the IC50 ([1]; Homo sapiens, GES1, 48 h) was 22 µM, the “inhibition activity on GES-1 cell lines growth vs control, dose-dependent” value ([1]; concentration range 1.56–25 μg/mL) was “significant inhibition activity” and the IC50 ([2]; Homo sapiens) was 34.5 µM. For the same compound, the “inhibition activity on L-O2 cell lines growth vs control, dose-dependent” value ([2]; concentration range 1.56–25 μg/mL, Figure 3) was “significant inhibition activity”.
